Assays:
in vivo = assay: in vivo; parameters: species or system ICR mice; settings: both sexes, ICR, mouse, inhaled or intranasal
Method: Test Example 3: PK Assay by Intratracheal Administration
Time points for plasma collection were: 0.25 h, 0.5 h, 1 h, 2 h, 4 h, 8 h, 12 h, and 24 h. […] Time points for lung tissue collection were: 0.5 h, 2 h, 8 h, and 24 h.
30.0 µL of plasma sample was added to a 1.5 mL centrifuge tube, and 150 µL of an internal standard working solution was added. […] 70.0 µL of the supernatant was added to a 96-well plate, and 70.0 µL of deionized water was added. The resulting mixture was well shaken, and 2.00 µL of the mixture was taken for LC-MS/MS analysis.
An appropriate amount of the lung tissue sample was accurately weighed out and placed into a homogenate tube, and acetonitrile was added at a volume equivalent to 5 times the weight of the sample. The mixture was homogenized and ultrasonicated for 5 min. 20.0 µL of the lung tissue homogenate sample was taken, and 30.0 µL of an internal standard working solution and 200 µL of acetonitrile were added. […] 100 µL of the supernatant was added to a 96-well plate, and 100 µL of deionized water was added.

PDE4B1 = PDE4B1 (Homo sapiens, UniProt Q07343); assay: In vitro PDE4B enzyme activity assay, IMAP FP-based; settings: for inhibition at 2 µM: read-out: Inhibition rate (%) PDE4B1(2000 nM)
PDE3A = PDE3A (Homo sapiens, UniProt Q14432); assay: In vitro PDE3A enzyme activity assay, IMAP FP-based
Sequence of PDE3A (Q14432 669-1141 limits assumed): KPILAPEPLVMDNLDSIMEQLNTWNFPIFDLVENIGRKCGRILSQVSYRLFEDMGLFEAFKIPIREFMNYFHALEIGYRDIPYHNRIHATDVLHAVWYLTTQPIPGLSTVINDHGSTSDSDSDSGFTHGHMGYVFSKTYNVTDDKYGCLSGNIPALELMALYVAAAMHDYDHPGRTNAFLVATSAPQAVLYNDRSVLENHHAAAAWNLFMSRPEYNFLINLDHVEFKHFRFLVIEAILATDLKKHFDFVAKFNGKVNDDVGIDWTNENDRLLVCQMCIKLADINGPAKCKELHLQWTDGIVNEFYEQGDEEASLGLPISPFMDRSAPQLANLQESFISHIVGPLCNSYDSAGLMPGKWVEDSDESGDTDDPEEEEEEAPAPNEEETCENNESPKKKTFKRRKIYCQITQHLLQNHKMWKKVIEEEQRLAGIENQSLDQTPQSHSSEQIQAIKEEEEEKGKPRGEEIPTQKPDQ

Sequence of PDE4B1 (Q07343 whole entry): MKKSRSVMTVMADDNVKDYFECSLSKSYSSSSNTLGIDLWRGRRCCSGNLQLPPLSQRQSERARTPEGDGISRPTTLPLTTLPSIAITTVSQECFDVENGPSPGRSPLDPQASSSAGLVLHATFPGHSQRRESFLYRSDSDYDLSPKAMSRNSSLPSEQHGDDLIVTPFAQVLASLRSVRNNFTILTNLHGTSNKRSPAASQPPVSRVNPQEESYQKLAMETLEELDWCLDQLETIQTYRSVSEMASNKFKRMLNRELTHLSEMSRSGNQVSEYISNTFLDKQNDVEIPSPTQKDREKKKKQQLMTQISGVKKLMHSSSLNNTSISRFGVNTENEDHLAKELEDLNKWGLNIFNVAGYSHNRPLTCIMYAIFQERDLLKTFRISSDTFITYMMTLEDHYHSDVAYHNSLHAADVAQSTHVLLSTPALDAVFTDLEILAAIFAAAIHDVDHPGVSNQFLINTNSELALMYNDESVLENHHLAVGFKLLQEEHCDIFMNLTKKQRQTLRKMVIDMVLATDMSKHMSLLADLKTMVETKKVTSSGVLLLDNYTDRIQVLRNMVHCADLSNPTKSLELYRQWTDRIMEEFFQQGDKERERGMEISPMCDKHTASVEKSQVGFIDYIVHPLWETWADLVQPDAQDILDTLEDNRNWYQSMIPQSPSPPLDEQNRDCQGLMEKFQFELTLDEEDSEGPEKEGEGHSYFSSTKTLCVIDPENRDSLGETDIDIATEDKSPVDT

| Compound | half-life (in vivo) [min] | Tmax (in vivo; Plasma Tmax (h)) [min] | IC50 (PDE4B1) [nM] | inhibition at 2 µM (PDE4B1) [%] | IC50 (PDE3A) [nM] | inhibition at 0.5 µM (PDE3A; read-out: Inhibition rate (%) PDE3A (500 nM)) [%] |
| --- | --- | --- | --- | --- | --- | --- |
| COc1cc2c(cc1OC)-c1cc(=Nc3c(C)cc(C)cc3C)n(CCNC(N)=O)c(=O)n1CC2 [RPL554, 9,10-dimethoxy-2-(2,4,6-trimethylphenylimino)-3-(N-carbamoyl-2-aminoethyl)-3,4,6,7-tetrahydro-2H-pyrimido[6,1-a]isoquinolin-4-one] | 52.8 | 15 | 110 | 64.2 | 0.25 | 99.2 |
| CCOc1cc2c(cc1OC)-c1cc(=Nc3c(C)cc(C)cc3C)n(CCN3CCOC3=O)c(=O)n1CC2 [WX001] |  |  | 876 | 66.3 |  |  |

Source: patent EP4610257A1, “CRYSTAL FORM OF ISOQUINOLINONE COMPOUND AND PREPARATION METHOD THEREFOR” (Jiangsu Hengrui Pharmaceuticals Co., Ltd., priority 2022, dated 2024)
